Assay results as given in patent US20230381170A1, “METHOD FOR TREATING ALS/FTD THROUGH DEGRADATION OF RNA REPEAT EXPANSION” (University of Florida Research Foundation, Incorporated, priority 2020, published 2023).
Like-named read-outs stand apart in the source and are kept apart here.

What was measured:
r(G4C2)8 = test: Biolayer interferometry (BLI) binding
Experimental: Biolayer Interferometry (BLI). BLI studies were performed similarly as previously described (12) using an Octet RED96. Briefly, 5′-biotinylated nucleic acids were folded by heating at 95° C. for 4 min in 10 mM sodium phosphate buffer, pH 7, followed by slowly cooling to room temperature. Then, to the folded RNA were added the following components: 1.386 mL 1×DPBS (21-031-CV, Corning), 180 μL freshly prepared 1% (w/v) BSA, 36 μL 1% (v/v) Tween-20, and 18 μL DMSO (1% final concentration) in a final volume of 1.8 mL. The final concentration of RNA was 0.5 μM. Separately, serial dilutions of the compound of interest were prepared in the same buffer.
The resulting curves were analyzed and processed using Octet Data Analysis software version 9.1 by subtracting the response of the sensors recorded upon incubation with solutions containing compound and no RNA (parallel reference). The data were then fitted assuming reversible binding using the entire time interval for association and dissociation using either 1:1 or the 2:1 heterogeneous binding curve fitting model. The reported Kd,n, kon,n and koff,n values represent the average of two independent experiments.

[1] = test system: RAN translation of r(G4C2)66; test: RAN translation assay in HEK293T cells; type: cell-based, human
Experimental: RAN Translation Assay. Inhibition of RAN translation in HEK239T cells was completed as previously described (12). Briefly, HEK293T cells (6×10^6 cells) were seeded in growth medium and incubated at 37° C. overnight. Cells were co-transfected with 2 μg of a plasmid encoding r(G4C2)66-No ATG-NanoLuciferase and 1 μg SV40-Firefly luciferase plasmid with Lipofectamine 3000 (Life Technologies) per the manufacturer's protocols. Following transfection, the cells (˜8000/well) were plated in a clear bottom 384-well plate and incubated at 37° C. for 2 h. Compounds were added in growth medium such that the final concentration of DMSO was less than 1%. The G4C2-LNA and control-LNA (Table 3) were transfected with RNAiMax at a final concentration of 100 nM following transfection with RNAiMax (Life Technologies) per the manufacturer's recommended protocol. RAN and canonical translation was measured following 24 h treatment using a Dual-Luciferase® Reporter Assay System (Promega) following manufacturer's protocol. Experiments were performed as biological triplicates (n=3). Luminescence from Nano-Luciferase activity (RAN translation) was normalized to luminescence from firefly luciferase activity. This ratio for vehicle-treated samples was then set to 1 and the ratios for treated samples normalized accordingly.

[2] = test system: r(G4C2)exp-containing nuclear foci; test: RNA FISH of foci in brain of +/+PWR500 mice; type: in vivo, mouse; settings: compared to vehicle
Experimental: (§1) Therapeutic Efficacy in a c9ALS/FD mouse model. All animal studies were completed as approved by the Scripps Florida Institutional Animal Care and Use Committee. A total of 24 mice (12+/+PWR500 [7 Male and 5 Female] and 12 WT [6 Male and 6 Female]) mice, age- and gender-matched and ranging in age from 18-22 weeks old were used in therapeutic efficacy studies (Table 6). Mice were anesthetized by intraperitoneal (i.p.) injection of 10 mg/mL Ketamine:1 mg/mL Xylazine solution. Intracerebroventricular (ICV) stereotactic injections of 10 μL of 7 (33 nmol) were administered into the right ventricle using the following coordinates: 0.2 mm posterior and 1.0 mm lateral to the right from the bregma and 3 mm deep. Mice were treated with 7 or vehicle consisting of 1% DMSO in Saline. Three weeks post-treatment, mice were euthanized, and tissue was harvested for study.
Fluorescence in situ Hybridization (FISH) with Immunofluorescence (IF). Tissues were excised, and brain tissue was sliced at the midline. The right hemisphere was fresh frozen with OCT in 2-methylbutane in liquid nitrogen, and 10 μm thick sections were prepared using a cryostat. The slides were then stained as previously described (36). […] Average number of foci per nuclei was assessed for each sample and reported. Statistical analysis was measured using an unpaired t-test with Welch's correction.

Poly(GP) = Poly(GP) sandwich immunoassay in brain of +/+PWR500 mice; type: in vivo, mouse
Experimental: as §1
Measuring Poly(GP) by MSD. Postmortem brain tissue was harvested and sliced sagittal at the midline. The left hemisphere was frozen for protein and RNA analysis. The left hemisphere of each brain was homogenized in 300 μL of ice-cold Tris-EDTA buffer with 2× protease inhibitors. […] Protein concentrations were measured by BCA assay (Pierce Biotechnology) and Poly(GP) was measured as described above. Statistical analysis was measured using an unpaired t-test with Welch's correction.

SMILES | dissociation rate (koff) compared to 2 (r(G4C2)8; BLI) | Kd (r(G4C2)8; BLI, read-out: Kd) [nM] | Kd (r(G4C2)8; BLI, read-out: Kd, 2) [nM] | bound more avidly to r(G4C2)8 than 2 (r(G4C2)8; Kd relative to 2) [fold] | RAN translation of r(G4C2)66 (Nano-luciferase activity) [1] | number of r(G4C2)exp-containing nuclear foci ([2]; brain) | abundance of antisense r(G2C4)exp foci [2] | reduction of Poly(GP) (Poly(GP); 33 nmol ICV, three weeks, brain) [%] | actin protein expression (control) (Poly(GP); +/+PWR500 or WT mice)
Cc1c2ccncc2c(C)c2c1[nH]c1ccc(OCCOCCOCCNCCOCCOCCOc3ccc4[nH]c5c(C)c6ccncc6c(C)c5c4c3)cc12 [Compound 3] | slower dissociation rate | 4 ± 0.07 | 900 | ~13 | inhibited | – | – | – | –
CCOC(=O)C1=C(Nc2ccccc2)S/C(=C\c2ccc(OCCOCCOCCOCCNC(=O)CCC(=O)N(CCOCCOCCOc3ccc4[nH]c5c(C)c6ccncc6c(C)c5c4c3)CCOCCOCCOc3ccc4[nH]c5c(C)c6ccncc6c(C)c5c4c3)c(O)c2)C1=O [Compound 7] | – | – | – | – | – | decreased | No effect | 74±24 | no decrease
